The subject of this assay is male C57BI/6 mice. Put plainly: LPS-Induced Pulmonary Inflammation Study. The assay is classed as in vivo. The settings on record: for average lavage TNFα: lavage supernatant, ELISA. On the procedure:
This study was to test the efficacy of orally administered compounds as disclosed herein to reduce LPS-induced inflammatory cell infiltration of the lungs, and was carried out in male C57BI/6 mice.
Day 11: Groups 1 and 2 were administered 10% HP-β-CD. Group 3: 7.59 mg dexamethasone 21-phosphate disodium salt (Sigma, Cat. D1159, lot 88H1020, SF 1.316) was dissolved in […] HP-β-CD to prepare a 0.2 mg/mL solution. Group 4: 1 mg Example 7 was dissolved in 4.5 mL HP-β-CD and 7 µL 1 M HCI (MP Biomedicals, Cat. 194055, lot 3956H) with alternating sonication and vortexing. The pH was adjusted by addition of 5 µL 1 M NaOH and the volume brought up to 5 mL with 0.488 mL HP-β-CD to yield a 0.2 mg/mL solution. Group 5: 3 mg Example 7 was dissolved in 4.5 mL HP-β-CD and 20 µL 1 M HCI with alternating sonication and vortexing. The pH was adjusted by addition of 16 µL 1 M NaOH and the volume brought up to 5 mL with 0.464 mL HP-β-CD to yield a 0.6 mg/ mL solution. Group 6: 10 mg Example 7 was dissolved in 4.5 mL HP-β-CD and 66 µL 1 M HCI with alternating sonication and vortexing. The pH was adjusted by addition of 53 µL 1 M NaOH and the volume brought up to 5 mL with 0.381 mL HP-β-CD to yield a 2 mg/mL solution.
25.7 mg lipopolysaccharides (LPS) from E. coli strain 055:B5 (Sigma, Cat. L2880, lot 025M4040V) was dissolved in 2.57 mL sterile saline (Hospira, lot 56-836-FW) to prepare a 10 mg/mL solution.
The mice were numbered, weighed, and dosed orally at 10 mL/kg as in Table 5.
An hour later, the mice were anesthetized, a midline incision was made in the neck, the muscle layers separated by blunt dissection, and 2 mL/kg LPS (20 mg/kg) injected into the trachea (Groups 2-6). The incision was closed with wound clips and the mice returned to cages. Group 1 received 2 mL/kg saline.
Six hours after LPS/saline injection, the mice were anesthetized, the wound clips removed, the trachea was cannulated with a 23 G needle blunt, and the lungs lavaged eight times with 0.5 mL heparinized saline. The lavage was pooled, gently inverted, and a sample retained for white blood cell (WBC) counts and differential analysis. The remainder of the lavage was centrifuged, the supernatants dispensed to one aliquot in labelled Eppendorf tubes which were stored at -80° C. The carcasses were disposed of appropriately.
Day 14: The aliquot of lung lavage supernatant was equilibrated to room temperature, diluted 1:2 and assayed for TNFα by ELISA (R&D Systems, Cat. MTA00B, lot 332141).

The mark [1] stands for this setting: 2 mg/kg oral, one hour pre-treatment (Group 4), did not reach statistical significance.
The mark [2] stands for this setting: 6 mg/kg oral, one hour pre-treatment (Group 5).
Where [3] appears, read: 20 mg/kg oral, one hour pre-treatment (Group 6).

With `CS(=O)(=O)N1CCN(c2ccc(-c3nc4ccncc4n3-c3ccc(F)cc3)cn2)CC1` [Example 7, 1-{5-[3-(4-Fluorophenyl)-3H-Imidazo[4,5-C]Pyridin-2-Yl]Pyridin-2-Yl}-4-Methanesulfonylpiperazine], the “reduction in infiltrating inflammatory cells” value is, setting by setting: under setting [1], 3%; under setting [2], 70%; under setting [3], 93%. In addition, the “reduction in lavage TNFα content” value was determined as 10% under setting [1], 65% under setting [2] and 74% under setting [3]. The “reduction in neutrophils in the lavage fluid” value reads like this: under setting [1], 27%; (6 mg/kg oral, one hour pre-treatment) 97%; (20 mg/kg oral, one hour pre-treatment) 97%. Also, the “effect of one hour oral pre-treatment on all measured parameters” value (2, 6, 20 mg/kg oral prior to LPS challenge, in words) is reported as “significant dose-dependent reduction in all measured parameters”. Also, the “effect of oral pre-treatment on LPS-induced pulmonary Neutrophil infiltration” value (FIG. 1, in words) was “decreases neutrophil infiltration in lung tissue”. The “effect of oral pre-treatment on LPS-induced pulmonary lavage TNFa content” value (FIG. 2, in words) was “decreases TNFa content in pulmonary lavage”. The “average lavage TNFα” value is on record as 337.00 pg/mL (Group 4, 2 mg/kg oral 1 h before LPS, Mean SD); 132.90 pg/mL (Group 5, 6 mg/kg oral 1 h before LPS, Mean SD); 98.87 pg/mL (Group 6, 20 mg/kg oral 1 h before LPS, Mean SD). In addition, the Neutrophils (Group 4, 2 mg/kg oral 1 h before LPS, lung lavage 6 h after LPS, Mean SD) is reported as 583 204.

The values above are taken from patent US20230190728A1, “NEW THERAPEUTIC USES OF COMPOUNDS” (PROXIMAGEN, LLC, priority 2020, published 2023).
